The values below come from US10030027B2, “Soluble guanylate cyclase stimulators” (MERCK SHARP & DOHME CORP., priority 2015, dated 2018).

By Ki is commonly meant a measure of affinity in units of concentration, obtained from inhibition or displacement.

Test [1] concerns the target sGC α1/β1 heterodimer (Homo sapiens (Human), UniProt Q02108+Q02153). As to the kind of experiment: Cell-based sGC functional assay (cyclic GMP assay for sGC activator: CASA assay). Also on record: % Activation: concentration or dose not given beside the values. The conditions noted are these: CHO-K1/sGC cells; for Emax: CHO-K1, activity expressed as percentage of compound A (standard), read-out: % Activation; for EC50: inflection point, 4P fit, read-out: IP. In short, it runs like this: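 CHO-K1 cells stably expressing sGC α1/β1 were pre-incubated with or without 1 μM DETA-NO (30 min, 25 °C), then exposed to compounds for 1 hr at 37 °C with 0.5 mM IBMX. Intracellular cGMP was read by HTRF and expressed as a percentage of a reference heme-dependent activator's maximum.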

The target of test [2] is human recombinant sGC enzyme (Homo sapiens (Human), UniProt Q02108+Q02153). As to the kind of experiment: Size Exclusion Chromatography (SEC) competition binding assay using [3H] Ex-77B as the radioligand. Conditions: [3H] Ex-77B radioligand, 24 hours at 37° C. A digest of the protocol: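 Recombinant human sGC binding measured by competition against tritiated Ex-77B radioligand, with non-specific binding defined by 1 μM unlabeled Ex-77B.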

For the compound `C[C@@]1(c2ccc(CCC(=O)NCc3nn[nH]n3)cc2)C(=O)Nc2nc(-c3nn(Cc4ccccc4F)c4ncccc34)nc(N)c21` [Example 108B, (S)—N-((2H-Tetrazol-5-yl)methyl)-3-(4-{4-amino-2-[1-(2-fluorobenzyl)-1H-pyrazolo[3,4-b]pyridin-3-yl]-5-methyl-6-oxo-6,7-dihydro-5H-pyrrolo[2,3-d]pyrimidin-5-yl}phenyl)propanamide], in test [1], the Emax was found to be 122% and the EC50 is 842 nM. Further, in test [2], the Ki came out at 0.056 nM.

As to `CC1CCC(Cn2nc(-c3nc(N)c4c(n3)NC(=O)[C@@]4(C)c3ccc(CCC(=O)O)cc3)c3ccc(Cl)cc32)CC1` (single isomer, unassigned) [Example 5BB], in test [1] (activity expressed as percentage of compound A (standard)), the “% Activation” value worked out at 107%. Besides, the EC50 in test [1] is 330 nM. In addition, the Ki in test [2] stood at 0.182 nM.

With `Cc1ccnc(Cn2nc(-c3nc(N)c4c(n3)NC(=O)C4(C)c3nc(CC(C)(C)C(=O)O)co3)c3ccc(Cl)cc32)c1F` (stereo not drawn) [Example 215A, 3-(2-{4-amino-2-[6-chloro-1-((3-fluoro-4-methyl-pyridin-2-yl)methyl)-1H-indazol-3-yl]-5-methyl-6-oxo-6,7-dihydro-5H-pyrrolo[2,3-d]pyrimidin-5-yl} 1,3-oxazol-4-yl)-2,2-dimethyl-propanoic acid], in test [1], the Emax was determined as 119% and the EC50 amounted to 3700 nM. Besides, the Ki in test [2] was 0.189 nM.

Turning to `CC(C)(Cc1csc([C@]2(C)C(=O)Nc3nc(-c4nn(CCC(F)(F)C(F)(F)F)c5ncccc45)nc(N)c32)n1)C(=O)NO` [Example 97B, (S)-3-(2-{4-Amino-5-methyl-6-oxo-2-[1-(3,3,4,4,4-pentafluorobutyl)-1H-pyrazolo[3,4-b]pyridin-3-yl]-6,7-dihydro-5H-pyrrolo[2,3-d]pyrimidin-5-yl}-1,3-thiazol-4-yl)-N-hydroxy-2,2-dimethylpropanamide], in test [1], the Emax stood at 122% and the EC50 was determined as 1150 nM. Moreover, the Ki in test [2] is 0.799 nM.

For the compound `C[C@@]1(c2ccc(CCC(=O)O)cc2)C(=O)Nc2nc(-c3nn(Cc4ncccc4F)c4cc(Cl)ccc34)nc(N)c21` (single isomer, unassigned) [Example 57B], in test [1], the Emax stood at 104% and the EC50 was found to be 1080 nM. The Ki in test [2] is 0.096 nM.

Consider `CC(C)(Cc1coc(C2(C)C(=O)Nc3nc(-c4nn(Cc5ccccc5F)c5ccccc45)nc(N)c32)n1)c1nn[nH]n1` (stereo not drawn) [Example 248B, 4-Amino-2-[1-(2-fluorobenzyl)-1H-indazol-3-yl]-5-methyl-5-{4-[2-methyl-2-(2H-tetrazol-5-yl)propyl]oxazol-2-yl}-5,7-dihydro-6H-pyrrolo[2,3-d]pyrimidin-6-one], for which, in test [1], the Emax came out at 106% and the EC50 is 116 nM. The Ki in test [2] amounted to 0.048 nM.

On to `CC1(c2cccc(CCC(=O)O)c2)C(=O)Nc2nc(-c3nn(Cc4ccccc4F)c4cc(F)ccc34)nc(N)c21` (stereo not drawn) [Example 61A, 3-(3-{4-amino-2-[6-fluoro-1-(2-fluorobenzyl)-1H-indazol-3-yl]-5-methyl-6-oxo-6,7-dihydro-5H-pyrrolo[2,3-d]pyrimidin-5-yl}phenyl)propanoic acid], for which, in test [1], the Emax was determined as 109% and the EC50 turned out to be 299 nM. In addition, the Ki in test [2] is 0.066 nM.

Consider `CC1(c2nc(-c3ccc(C(=O)O)cc3)co2)C(=O)Nc2nc(-c3nn(Cc4ccccc4F)c4cc(Cl)ccc34)nc(N)c21` (stereo not drawn) [Example 164A, 4-(2-{4-amino-2-[6-chloro-1-(2-fluorobenzyl)-1H-indazol-3-yl]-5-methyl-6-oxo-6,7-dihydro-5H-pyrrolo[2,3-d]pyrimidin-5-yl}-1,3-oxazol-4-yl) benzoic acid], for which, in test [1], the Emax was 127% and the EC50 amounted to 439 nM. Also, the Ki in test [2] was found to be 0.099 nM.

Turning to `CC(C)(Cc1coc(C2(C)C(=O)Nc3nc(-c4nn(CC5CCCCC5)c5ncccc45)nc(N)c32)n1)C(=O)O` (stereo not drawn) [Example 152A, 3-(2-{4-amino-2-[1-(cyclohexyl-methyl)-1H-pyrazolo[3,4-b]pyridin-3-yl]-5-methyl-6-oxo-6,7-dihydro-5H-pyrrolo[2,3-d]pyrimidin-5-yl}-1,3-oxazol-4-yl)-2,2-dimethyl-propanoic acid], in test [1], the Emax came to 118% and the EC50 was determined as 120 nM. Further, the inhibition constant (Ki) in test [2] is 0.031 nM.

With `CC1(c2nc(C[C@H](N)C(=O)O)cs2)C(=O)Nc2nc(-c3nn(Cc4ccccc4F)c4cc(Cl)ccc34)nc(N)c21` (stereo partly drawn) [Example 234B, (S)-3-(2-{4-Amino-2-[6-chloro-1-(2-fluorobenzyl)-1H-indazol-3-yl]-5-methyl-6-oxo-6,7-dihydro-5H-pyrrolo[2,3-d]pyrimidin-5-yl}-1,3-thiazol-4-yl)-D-alanine], in test [1], the Emax was found to be 135% and the EC50 turned out to be 265 nM. In addition, the Ki in test [2] amounted to 0.947 nM.

Turning to `CC1(c2cc(-c3nn[nH]n3)ccn2)C(=O)Nc2nc(-c3nn(Cc4ccccc4F)c4cc(Cl)ccc34)nc(N)c21` (stereo not drawn) [Example 243A, 5-[4-(2H-tetrazol-5-yl)pyridin-2-yl]-4-amino-2-[6-chloro-1-(2-fluorobenzyl)-1H-indazol-3-yl]-5-methyl-5,7-dihydro-6H-pyrrolo[2,3-d] pyrimidin-6-one], in test [1], the Emax amounted to 101% and the EC50 is 3600 nM. In addition, the Ki in test [2] was 0.062 nM.

Regarding `CC(C)(Cn1cc(C2(C)C(=O)Nc3nc(-c4nn(CCC(F)(F)C(F)(F)F)c5cc(Cl)ccc45)nc(N)c32)nn1)C(=O)O` (stereo not drawn) [Example 31B, 3-(4-{4-amino-2-[6-chloro-1-(3,3,4,4,4-pentafluorobutyl)-1H-indazol-3-yl]-5-methyl-6-oxo-6,7-dihydro-5H-pyrrolo[2,3-d]pyrimidin-5-yl}-1H-1,2,3-triazol-1-yl)-2,2-dimethylpropanoic acid], in test [1], the Emax was 130% and the EC50 worked out at 8330 nM. Besides, in test [2], the Ki turned out to be 1.41 nM.

In the case of `Cc1cccc(Cn2nc(-c3nc(N)c4c(n3)NC(=O)C4(C)c3cnn(CC(C)(C)C(=O)O)c3)c3ccc(F)cc32)c1F` (stereo not drawn) [Example 211A, 3-(4-{4-amino-2-[6-fluoro-1-(2-fluoro-3-methyl-benzyl)-1H-indazol-3-yl]-5-methyl-6-oxo-6,7-dihydro-5H-pyrrolo[2,3-d]pyrimidin-5-yl}-1H-pyrazol-1-yl)-2,2-dimethyl-propanoic acid], in test [1], the Emax is 96.2% and the EC50 stood at 1180 nM. The Ki in test [2] was found to be 0.258 nM.

As to `CC(C)(Cc1nc(C2(C)C(=O)Nc3nc(-c4nn(Cc5ccccc5F)c5cc(Cl)ccc45)nc(N)c32)co1)C(=O)O` (stereo not drawn) [Example 128A, 3-(4-{4-amino-2-[6-chloro-1-(2-fluorobenzyl)-1H-indazol-3-yl]-5-methyl-6-oxo-6,7-dihydro-5H-pyrrolo[2,3-d]pyrimidin-5-yl}-1,3-oxazol-2-yl)-2,2-dimethylpropanoic acid], in test [1], the Emax came to 117% and the EC50 stood at 137 nM. Also, the Ki in test [2] is 0.111 nM.

As for `CC(C)(Cc1coc(C2(C)C(=O)Nc3nc(-c4nn(Cc5c(F)cccc5F)c5cc(Cl)ccc45)nc(N)c32)n1)C(=O)O` (stereo not drawn) [Example 182A, 3-(2-{4-amino-2-[6-chloro-1-(2,6-difluorobenzyl)-1H-indazol-3-yl]-5-methyl-6-oxo-6,7-dihydro-5H-pyrrolo[2,3-d]pyrimidin-5-yl}-1,3-oxazol-4-yl)-2,2-dimethyl-propanoic acid], in test [1], the Emax worked out at 92% and the EC50 is 238 nM. Moreover, in test [2], the inhibition constant Ki was 0.124 nM.
